For orientation: inhibition means the drop in the measured response relative to a control, in per cent. A word on the EC50: it is the midpoint of the concentration-response curve. For orientation: IC50 means the point on the concentration scale where inhibition reaches its midpoint.

Series [1] has as its target T1, chick N-cadherin (Gallus gallus, UniProt P10288).
T1 construct: expressed in transfected cells; host or cells: 3T3 fibroblasts (monolayer); rat post-natal day 2-3 cerebellar neurons plated on top
T1 sequence (P10288 165-912): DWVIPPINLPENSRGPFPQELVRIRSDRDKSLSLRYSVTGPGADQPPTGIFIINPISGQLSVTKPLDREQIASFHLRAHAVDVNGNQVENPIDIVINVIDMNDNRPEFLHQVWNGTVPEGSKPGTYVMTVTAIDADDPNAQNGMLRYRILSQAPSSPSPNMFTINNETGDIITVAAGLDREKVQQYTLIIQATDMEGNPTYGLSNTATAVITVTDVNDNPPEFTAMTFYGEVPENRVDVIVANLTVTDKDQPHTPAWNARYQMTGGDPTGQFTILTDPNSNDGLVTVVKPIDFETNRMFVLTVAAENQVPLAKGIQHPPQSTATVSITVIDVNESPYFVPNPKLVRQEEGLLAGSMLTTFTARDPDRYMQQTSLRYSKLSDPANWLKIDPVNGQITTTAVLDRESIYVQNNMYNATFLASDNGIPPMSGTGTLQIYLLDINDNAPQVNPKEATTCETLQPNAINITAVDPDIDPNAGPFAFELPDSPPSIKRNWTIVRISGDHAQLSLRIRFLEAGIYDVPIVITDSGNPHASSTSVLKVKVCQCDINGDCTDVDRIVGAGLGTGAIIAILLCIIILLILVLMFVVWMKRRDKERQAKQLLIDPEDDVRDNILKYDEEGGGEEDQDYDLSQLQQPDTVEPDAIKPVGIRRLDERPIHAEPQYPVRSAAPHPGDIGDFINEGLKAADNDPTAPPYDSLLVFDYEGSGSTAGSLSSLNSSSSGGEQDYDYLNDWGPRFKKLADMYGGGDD
The series is described as follows: Neurite outgrowth of rat cerebellar neurons on N-cadherin expressing 3T3 monolayers (Example 15). In kind it is cell-based. To be noted: for inhibitory activity on N-cadherin dependent neurite outgrowth, structure/activity statements: Tables 8 and 9; for inhibition at 250 µg/mL: 16-18 hours, read-out: % Inhibition of N-Cadherin Dependent Neurite Outgrowth. The procedure: (§1) Cell culture and neurite outgrowth assays. Co-cultures of cerebellar neurons on monolayers of control 3T3 cells and monolayers of transfected 3T3 cells that express physiological levels of chick N-cadherin or human L1 were established as previously described (Williams et al., Neuron 13:583-594, 1994). In brief, 80,000 3T3 cells (control and transfected) were plated into individual chambers of an eight-chamber tissue culture slide coated with polylysine and fibronectin and cultured in DMEM/10% FCS. After 24 hours, when confluent monolayers had formed, the medium was removed and 3000 cerebellar neurons isolated from post-natal day 2-3 rats were plated into each well in SATO media (Doherty et al., Nature 343:464-466, 1990) supplemented with 2% FCS. All of the test peptides were added immediately before the neurons as a 2× stock prepared in SATO/2% FCS. The co-cultures were maintained for 16-18 hours, at which time they were fixed and immunostained for GAP-43 which is present only in the neurons and delineates the neuritic processes. The mean length of the longest neurite per cell was measured for 150-200 neurons sampled in replicate cultures as previously described (Williams et al., Neuron 13:583-594, 1994). […] Dose-response curves were evaluated and the EC50 values determined.

Series [2] deals with Madin Darby canine kidney (MDCK) cells. It is filed as cell-based. The following applies: for EC50, decrease of electrical resistance across MDCK cell monolayer: 18 hours. The procedure:
Yet another assay evaluates the effect of a modulating agent on the electrical resistance across a monolayer of cells. For example, Madin Darby canine kidney (MDCK) cells can be exposed to the modulating agent dissolved in medium (e.g., at a final concentration of 0.5 mg/ml for a period of 24 hours). The effect on electrical resistance can be measured using standard techniques. This assay evaluates the effect of a modulating agent on tight junction formation in epithelial cells. In general, the presence of 500 μg/mL modulating agent should result in a statistically significant decrease in electrical resistance after 24 hours.
Madin Darby canine kidney (MDCK) cells were plated in Millicells (Millipore, Bedford, Mass.), at a density of 300,000 cells per Millicell, and cultured in Dulbecco's Modified Eagle Medium (DMEM; Sigma, St. Louis, Mo.) containing 5% fetal calf serum (Sigma, St. Louis, Mo.) until monolayers formed. Monolayers were exposed to the modulating agent dissolved in medium. The electrical resistance was measured using the EVOM device (World Precision Instruments, Sarasota, Fla.). At the time of measurement, fresh medium, with or without the modulating agent, may be added to the Millicells.

In series [3] the target is L1 (Homo sapiens, UniProt P32004). The series is described as follows: Neurite outgrowth of rat cerebellar neurons on L1 expressing 3T3 monolayers (Example 15). In kind it is cell-based. Set-up: expressed in transfected cells; rat cerebellar neurons on top. To be noted: for inhibition at 125 µg/mL: 125 μg/ml, read-out: % Inhibition of L1 Response; for effect on L1 stimulated neurite outgrowth (in words): concentrations that inhibited the N-cadherin response (100 μg/mL in FIG. 24). The procedure: as §1
L1, sequence (P32004 20-1257): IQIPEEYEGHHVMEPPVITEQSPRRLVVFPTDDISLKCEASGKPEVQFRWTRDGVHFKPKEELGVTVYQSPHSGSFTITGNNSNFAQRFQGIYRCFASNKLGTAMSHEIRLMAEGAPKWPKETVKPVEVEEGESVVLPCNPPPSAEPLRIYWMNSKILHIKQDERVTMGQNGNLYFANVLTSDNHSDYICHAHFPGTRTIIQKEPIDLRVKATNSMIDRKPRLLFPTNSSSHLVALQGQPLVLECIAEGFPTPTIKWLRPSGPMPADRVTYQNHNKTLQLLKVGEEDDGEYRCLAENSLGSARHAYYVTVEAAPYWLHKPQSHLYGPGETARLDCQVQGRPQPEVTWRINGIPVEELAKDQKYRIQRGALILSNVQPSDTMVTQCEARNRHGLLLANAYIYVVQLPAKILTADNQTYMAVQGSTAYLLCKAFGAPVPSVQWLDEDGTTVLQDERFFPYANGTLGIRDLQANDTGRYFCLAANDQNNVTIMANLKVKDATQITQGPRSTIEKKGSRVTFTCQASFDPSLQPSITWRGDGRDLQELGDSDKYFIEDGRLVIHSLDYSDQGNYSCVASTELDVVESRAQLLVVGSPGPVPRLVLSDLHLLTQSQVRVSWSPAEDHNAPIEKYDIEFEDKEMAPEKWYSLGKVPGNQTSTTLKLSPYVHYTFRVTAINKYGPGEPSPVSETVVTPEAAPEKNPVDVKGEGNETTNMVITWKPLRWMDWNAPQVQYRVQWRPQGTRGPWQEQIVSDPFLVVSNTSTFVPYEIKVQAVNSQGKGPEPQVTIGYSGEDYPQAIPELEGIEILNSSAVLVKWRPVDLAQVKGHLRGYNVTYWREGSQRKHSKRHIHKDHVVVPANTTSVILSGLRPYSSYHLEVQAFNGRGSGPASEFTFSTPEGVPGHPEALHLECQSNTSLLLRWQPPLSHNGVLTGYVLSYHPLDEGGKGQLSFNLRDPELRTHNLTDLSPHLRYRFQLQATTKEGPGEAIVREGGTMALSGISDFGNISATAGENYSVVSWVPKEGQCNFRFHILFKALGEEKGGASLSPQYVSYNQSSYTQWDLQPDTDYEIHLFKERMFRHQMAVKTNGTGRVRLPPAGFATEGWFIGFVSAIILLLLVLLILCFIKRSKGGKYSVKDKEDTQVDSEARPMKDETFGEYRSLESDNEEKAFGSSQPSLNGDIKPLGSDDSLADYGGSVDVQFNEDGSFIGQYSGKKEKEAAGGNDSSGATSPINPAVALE
Other cell adhesion molecules, such as L1, can stimulate neurite outgrowth, and this response shares the same downstream signaling steps as the N-cadherin response. […] As previously reported, L1 stimulated neurite outgrowth from cerebellar neurons.

The test system of series [4] is Madin Darby canine kidney (MDCK) cells. It is filed as cell-based. The following applies: 18 h.
The target of series [5] is T2, N-cadherin (Gallus gallus, UniProt P10288).
T2 construct: expressed in transfected cells; host or cells: 3T3 fibroblasts (monolayer)
T2 sequence (P10288 165-912): T1 sequence (P10288 165-912)
The series is described as follows: Neurite outgrowth inhibition, rat neurons (Example 21). In kind it is cell-based. To be noted: read-out: % Inhibition of neurite outgrowth; 250 μg/mL.

Series [6] concerns HMVEC. It is filed as cell-based, human. To be noted: 3 h. The procedure:
(§2) N—Ac-CHAVC-NH2 (SEQ ID NO:10) and the control peptide N—Ac-CHGVC-NH2 (SEQ ID NO:11) were evaluated for possible cytotoxic effects on human microvascular endothelial (HMVEC; Clonetics), human umbilical vein endothelial (HUVEC; ATCC #CRL-1730), IAFp2 (human fibroblast cell line; Institute Armand-Frapier, Montreal, Quebec), WI-38 (human fibroblast cell line; ATCC #CCL-75), MDA-MB231 (human breast cancer cell line; ATCC #HTB-26), and PC-3 (human prostate cancer cell line; ATCC #CRL-1435) cells utilizing the MTT assay (Plumb et al., Cancer Res. 49:4435-4440, 1989). Neither of the peptides was cytotoxic at concentrations up to and including 100 μM. Similarly, neither of the peptides was capable of inhibiting the proliferation of the above cell lines at concentrations up to 100 μM, as judged by ^3H-thymidine incorporation assays.

The subject of series [7] is HUVEC. It is filed as cell-based, human. The following applies: 3 h. How it is done:
as §2

For series [8], the system named is IAFp2. In kind it is cell-based, human. The following applies: 3 h. How it is done: as §2
Series [9] deals with MDA-MB231. In kind it is cell-based, human. The following applies: 3 h. The procedure: as §2
Series [10] deals with PC-3. It is filed as cell-based, human. To be noted: 3 h. How it is done: as §2
Series [11] has as its system WI-38. It is filed as cell-based, human. The following applies: 3 h. How it is done: as §2
Series [12] deals with MDA-MB231. The series is described as follows: Cytotoxicity, MTT assay, MDA-MB231. It is filed as cell-based, human. The procedure: as §2
Series [13] has as its system PC-3. The series is described as follows: Cytotoxicity, MTT assay, PC-3. It is filed as cell-based, human. How it is done: as §2
In general terms: Tetrazolium assays rely on reduction of a dye to a coloured formazan, in cell work by metabolically active cells.

“Also recorded” adds a separate entry of the source. Where two headings read alike, the source gives them in different places. Positions of bridges follow the written chain, without caps; N, C: chain ends. Residues, ends and D or L forms follow the SMILES beside them. *: point of attachment. Ms = CS(=O)(=O)* Bounds are passed on as bounds.

Take `CC[C@H](C)[C@@H]1NC(=O)[C@H](CC(=O)O)NC(=O)[C@H](C(C)C)NC(=O)[C@H](C)NC(=O)[C@H](Cc2c[nH]cn2)NC(=O)[C@@H](NC(C)=O)CSSC[C@@H](C(N)=O)NC(=O)[C@H](CC(N)=O)NC1=O` (Ac-CHAVDINC-NH2; disulfide 1-8): the “inhibitory activity on N-cadherin dependent neurite outgrowth, structure/activity statements” value in series [1] (listed as N—Ac-CHAVDINC-NH2) is on record as “only a slight loss in activity; also recorded: potent inhibitors”. Besides, in series [2], the “effect on electrical resistance across MDCK cells (in words)” value is given as “complete abrogation of E-cadherin specific activity” and the “EC50, decrease of electrical resistance across MDCK cell monolayer” value was “INACTIVE”. The inhibition at 125 µg/mL in series [3] is 1.7 ± 7.3%. Further, the “effect on L1 stimulated neurite outgrowth (in words)” value in [3] (listed as N—Ac-CHAVDINC-NH2) is “did not interfere with the ability of neurons to extend neurites over 3T3 cells expressing L1”.
In series [4], `CC(C)[C@@H]1NC(=O)[C@H](C)NC(=O)[C@H](Cc2c[nH]cn2)NC(=O)[C@@H](NS(C)(=O)=O)CSSC[C@@H](C(=O)N[C@@H](Cc2ccc(O)cc2)C(N)=O)NC1=O` [CH3—SO2—NH—CHAVCY—NH2] (Ms-CHAVCY-NH2; disulfide 1-5) had an EC50 of 140 µM.
For `CC(C)[C@@H]1NC(=O)[C@H](C)NC(=O)[C@H](Cc2c[nH]cn2)NC(=O)[C@@H](NC=O)CSSC[C@@H](C(N)=O)NC1=O` [H—C(O)—NH—CHAVC—NH2], the “effect on electrical resistance across MDCK cells (in words)” value in [2] is recorded as “decrease in potency”. The same compound had a concentration for a half-maximal effect (EC50) in [4] of 560 µM.
Consider `CC(=O)N[C@H]1CSSC[C@@H](C(N)=O)NC(=O)[C@H](C(C)C)NC(=O)[C@H](C)NC(=O)[C@H](Cc2c[nH]cn2)NC(=O)[C@H](CO)NC(=O)[C@H](Cc2ccccc2)NC1=O` [N—Ac—CFSHAVC—NH2] (Ac-CFSHAVC-NH2; disulfide 1-7), for which, in [4], a half-maximal effect (EC50) was put at 22 µM. This counts as double-digit micromolar.
With `CC(=O)N[C@H]1CSSC[C@@H](C(=O)N[C@@H](CC(=O)O)C(N)=O)NC(=O)[C@H](C(C)C)NC(=O)[C@H](C)NC(=O)[C@H](Cc2c[nH]cn2)NC1=O` [N—Ac—CHAVCD—NH2] (Ac-CHAVCD-NH2; disulfide 1-5), the inhibition at 250 µg/mL in [1] (250 μg/mL) was determined as 3.3 ± 10%. Besides, in [4], the midpoint of the response, the EC50, lay at 470 µM.
In the same order, the values of `CC(=O)N[C@H]1CSSC[C@@H](C(=O)N[C@@H](CO)C(=O)N[C@@H](CO)C(N)=O)NC(=O)[C@H](C(C)C)NC(=O)[C@H](C)NC(=O)[C@H](Cc2c[nH]cn2)NC1=O` [N—Ac—CHAVCSS—NH2] (Ac-CHAVCSS-NH2; disulfide 1-5) are 37.8 ± 4% and 430 µM.
For `CC(=O)N[C@H]1CSSC[C@@H](C(=O)N[C@@H](CO)C(N)=O)NC(=O)[C@H](C(C)C)NC(=O)[C@H](C)NC(=O)[C@H](Cc2c[nH]cn2)NC1=O` [N—Ac—CHAVCS—NH2] (Ac-CHAVCS-NH2; disulfide 1-5), in that order: 6.9 ± 5.4% and 490 µM.
For `CC(=O)N[C@H]1CSSC[C@@H](C(=O)N[C@H](C(N)=O)[C@@H](C)O)NC(=O)[C@H](C(C)C)NC(=O)[C@H](C)NC(=O)[C@H](Cc2c[nH]cn2)NC1=O` [N—Ac—CHAVCT—NH2] (Ac-CHAVCT-NH2; disulfide 1-5), in that order: 23.7 ± 6.6% and 480 µM.
In the case of `CC(=O)N[C@H]1CSSC[C@@H](C(N)=O)NC(=O)[C@H](CC(=O)O)NC(=O)[C@H](C(C)C)NC(=O)[C@H](C)NC(=O)[C@H](Cc2c[nH]cn2)NC1=O` [N—Ac—CHAVDC—NH2] (Ac-CHAVDC-NH2; disulfide 1-6), in series [1] (250 μg/mL), the “inhibition of N-cadherin dependent neurite outgrowth (in words)” value is reported as “potent inhibitors of neurite outgrowth”. For the same compound, the “inhibitory activity on N-cadherin dependent neurite outgrowth, structure/activity statements” value in [1] is on record as “dramatically increased the inhibitory activity”. Besides, in series [2], the “effect on electrical resistance across MDCK cells (in words)” value was “complete abrogation of E-cadherin specific activity” and the “EC50, decrease of electrical resistance across MDCK cell monolayer” value was “INACTIVE”. Further, the inhibition at 250 µg/mL in series [5] was 88%. For the same compound, in series [3], the inhibition at 125 µg/mL was determined as 9.6 ± 3.3% and the “effect on L1 stimulated neurite outgrowth (in words)” value is listed as “did not interfere with the ability of neurons to extend neurites over 3T3 cells expressing L1”.
With `CC(=O)N[C@H]1CSSC[C@@H](C(N)=O)NC(=O)[C@H](C(C)C)NC(=O)[C@H](C)NC(=O)[C@H](Cc2c[nH]cn2)NC(=O)[C@H](CO)NC1=O` [N—Ac—CSHAVC—NH2, N-Ac-Cys-Ser-His-Ala-Val-Cys-NH2] (Ac-CSHAVC-NH2; disulfide 1-6), the IC50 in series [6], in series [7], in series [8], in [9], in [10] and in [11] was greater than 100 µM in each case. Moreover, the half-maximal inhibitory concentration (IC50) in series [12] and in series [13] was greater than 100 µM throughout. Moreover, in series [1] (250 μg/mL (Table 8)), the “reduction in inhibitory activity on flanking HAV with E-cadherin amino acids” value is reported as “complete”. Further, the inhibition at 250 µg/mL in series [5] was determined as 0%. This compound also registered an EC50 in [4] of 20 µM.
Compound `CC(=O)N[C@@H](CO)C(=O)N[C@H]1CSSC[C@@H](C(N)=O)NC(=O)[C@H](C(C)C)NC(=O)[C@H](C)NC(=O)[C@H](Cc2c[nH]cn2)NC1=O` [N—Ac—S—CHAVC—NH2] (Ac-SCHAVC-NH2; disulfide 2-6) displayed an EC50 in [4] of 490 µM.

The values are drawn from patent US20040106545A1, “Compounds and methods for modulating cell adhesion” (priority 1996, published 2004).
